Experiments:
Format in all cases: in vivo
barnyardgrass [1] = assay: Test Example 1: herbicidal effects in preemergence treatment under submerged conditions; settings: dose 2.52 g/a
Summary of the method: (§1)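 Flooded-paddy preemergence assay; EC diluted with water, surface-applied at weed seeding; doses g/a; rice transplanted at 2.5 leaves; 0–5 mortality score after 3 weeks.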

bulrush [2] = assay: as above; settings: dose 2.52 g/a
Summary of the method: as §1

ducksalad [3] = assay: as above; settings: dose 2.52 g/a
Summary of the method: as §1

transplanted rice = assay: Test Example 1: preemergence treatment under submerged conditions, effect on crop; settings: dose 2.52 g/a
Summary of the method: as §1

barnyardgrass [4] = assay: Test Example 2: herbicidal effects during the vegetation period under submerged conditions; settings: treatment during the vegetation period under submerged conditions; dose 2.52 g/a
Summary of the method: (§2)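 Barnyardgrass, bulrush and ducksalad were co-sown in alluvial soil flooded to 4 cm and grown in a greenhouse at 25 to 30° C. At the 1- or 2-leaf stage, water-diluted emulsifiable concentrates went onto the water surface at set doses (g/a). Herbicidal effect was scored three weeks later on a graded scale.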

bulrush [5] = assay: as above; settings: treatment during the vegetation period under submerged conditions; dose 2.52 g/a
Summary of the method: as §2

ducksalad [6] = assay: as above; settings: treatment during the vegetation period under submerged conditions; dose 2.52 g/a
Summary of the method: as §2

Italian ryegrass [7] = assay: Test Example 3: herbicidal effects in soil treatment; settings: dose 3.2 g/a
Summary of the method: (§3)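 Seeds were sown in sterilized diluvial soil and covered with about 1.5 cm of soil. Compounds, formulated as emulsifiable concentrates and diluted with water, were sprayed evenly over the soil surface at set doses in g/a. Herbicidal effect was scored on a rating scale three weeks later.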

barnyardgrass [8] = assay: as above; settings: dose 3.2 g/a
Summary of the method: as §3

common chickweed [9] = assay: as above; settings: dose 3.2 g/a
Summary of the method: as §3

common lambsquater [10] = assay: as above; settings: dose 3.2 g/a
Summary of the method: as §3

common ragweed [11] = assay: as above; settings: dose 3.2 g/a
Summary of the method: as §3

giant foxtail [12] = assay: as above; settings: dose 3.2 g/a
Summary of the method: as §3

large crabgrass [13] = assay: as above; settings: dose 3.2 g/a
Summary of the method: as §3

posumbu knotweed [14] = assay: as above; settings: dose 3.2 g/a
Summary of the method: as §3

redroot pigweed [15] = assay: as above; settings: dose 3.2 g/a
Summary of the method: as §3

velvetleaf [16] = assay: as above; settings: dose 3.2 g/a
Summary of the method: as §3

water foxtail [17] = assay: as above; settings: dose 3.2 g/a
Summary of the method: as §3

wild oat [18] = assay: as above; settings: dose 3.2 g/a
Summary of the method: as §3

Italian ryegrass [19] = assay: Test Example 4: herbicidal effect in foliage treatment; settings: dose 3.2 g/a, three weeks after the application
Summary of the method: (§4)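 Herbicidal effect was rated on an evaluation scale three weeks after treatment. Plants had been raised 14 days at 25 to 30° C in sterilized diluvial soil, then received foliar sprays of emulsifiable concentrate diluted in water at predetermined doses expressed as g per are.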

barnyardgrass [20] = assay: as above; settings: dose 3.2 g/a, three weeks after the application
Summary of the method: as §4

beadstraw = assay: as above; settings: dose 3.2 g/a, three weeks after the application
Summary of the method: as §4

common chickweed [21] = assay: as above; settings: dose 3.2 g/a, three weeks after the application
Summary of the method: as §4

common lambsquater [22] = assay: as above; settings: dose 3.2 g/a, three weeks after the application
Summary of the method: as §4

common ragweed [23] = assay: as above; settings: dose 3.2 g/a, three weeks after the application
Summary of the method: as §4

giant foxtail [24] = assay: as above; settings: dose 3.2 g/a, three weeks after the application
Summary of the method: as §4

large crabgrass [25] = assay: as above; settings: dose 3.2 g/a, three weeks after the application
Summary of the method: as §4

posumbu knotweed [26] = assay: as above; settings: dose 3.2 g/a, three weeks after the application
Summary of the method: as §4

redroot pigweed [27] = assay: as above; settings: dose 3.2 g/a, three weeks after the application
Summary of the method: as §4

velvetleaf [28] = assay: as above; settings: dose 3.2 g/a, three weeks after the application
Summary of the method: as §4

water foxtail [29] = assay: as above; settings: dose 3.2 g/a, three weeks after the application
Summary of the method: as §4

wild oat [30] = assay: as above; settings: dose 3.2 g/a, three weeks after the application
Summary of the method: as §4

`O=C1CCCON1Cc1ccccc1N(C(=O)OCCCl)S(=O)(=O)C(F)(F)F` [III-14] was tested, and the “A: barnyardgrass, herbicidal effect (evaluation scale 0-5)” value (barnyardgrass [1]) was 5 (mortality of 90% or above (nearly complete death)), the “B: bulrush, herbicidal effect (evaluation scale 0-5)” value (“B: bulrush, herbicidal effect” for short) (bulrush [2]) was 5 (mortality of 90% or above (nearly complete death)) and the “C: ducksalad, herbicidal effect (evaluation scale 0-5)” value (“C: ducksalad, herbicidal effect” below) (ducksalad [3]) was 5 (mortality of 90% or above (nearly complete death)). For the same compound, the “a: transplanted rice, effect on crop (evaluation scale 0-5)” value (transplanted rice) was 3 (mortality of at least 40% and less than 70%), the “A: barnyardgrass, herbicidal effect (evaluation scale 0-5)” value (barnyardgrass [4]) was 5 (mortality of 90% or above (nearly complete death)) and the “B: bulrush, herbicidal effect” value (bulrush [5]) was 5 (mortality of 90% or above (nearly complete death)). For the same compound, the “C: ducksalad, herbicidal effect” value (ducksalad [6]) was 5 (mortality of 90% or above (nearly complete death)), the “herbicidal effect, H: Italian ryegrass” value (Italian ryegrass [7]) was 3 (mortality of at least 40% and less than 70%) and the “herbicidal effect, A: barnyardgrass” value (barnyardgrass [8]) was 5 (mortality of 90% or above (nearly complete death)). For the same compound, the “herbicidal effect, N: common chickweed” value (common chickweed [9]) was 5 (mortality of 90% or above (nearly complete death)), the “herbicidal effect, L: common lambsquater” value (common lambsquater [10]) was 0 (mortality of less than 5% (almost ineffective)) and the “herbicidal effect, J: common ragweed” value (common ragweed [11]) was 5 (mortality of 90% or above (nearly complete death)). The “herbicidal effect, E: giant foxtail” value (giant foxtail [12]) was 5 (mortality of 90% or above (nearly complete death)), the “herbicidal effect, D: large crabgrass” value (large crabgrass [13]) was 5 (mortality of 90% or above (nearly complete death)) and the “herbicidal effect, M: posumbu knotweed” value (posumbu knotweed [14]) was 3 (mortality of at least 40% and less than 70%). For the same compound, the “herbicidal effect, K: redroot pigweed” value (redroot pigweed [15]) was 1 (mortality of at least 5% and less than 20%), the “herbicidal effect, I: velvetleaf” value (velvetleaf [16]) was 5 (mortality of 90% or above (nearly complete death)) and the “herbicidal effect, G: water foxtail” value (water foxtail [17]) was 5 (mortality of 90% or above (nearly complete death)). For the same compound, the “herbicidal effect, F: wild oat” value (wild oat [18]) was 0 (mortality of less than 5% (almost ineffective)), the “H: Italian ryegrass, herbicidal effect” value (Italian ryegrass [19]) was 4 (mortality of at least 70% and less than 90%) and the “A: barnyardgrass, herbicidal effect” value (barnyardgrass [20]) was 5 (mortality of 90% or above (nearly complete death)). For the same compound, the “O: beadstraw, herbicidal effect” value (beadstraw) was 5 (mortality of 90% or above (nearly complete death)), the “N: common chickweed, herbicidal effect” value (common chickweed [21]) was 4 (mortality of at least 70% and less than 90%) and the “L: common lambsquater, herbicidal effect” value (common lambsquater [22]) was 0 (mortality of less than 5% (almost ineffective)). For the same compound, the “J: common ragweed, herbicidal effect” value (common ragweed [23]) was 4 (mortality of at least 70% and less than 90%), the “E: giant foxtail, herbicidal effect” value (giant foxtail [24]) was 5 (mortality of 90% or above (nearly complete death)) and the “D: large crabgrass, herbicidal effect” value (large crabgrass [25]) was 5 (mortality of 90% or above (nearly complete death)). The “M: posumbu knotweed, herbicidal effect” value (posumbu knotweed [26]) was 0 (mortality of less than 5% (almost ineffective)), the “K: redroot pigweed, herbicidal effect” value (redroot pigweed [27]) was 3 (mortality of at least 40% and less than 70%) and the “I: velvetleaf, herbicidal effect” value (velvetleaf [28]) was 5 (mortality of 90% or above (nearly complete death)). For the same compound, the “G: water foxtail, herbicidal effect” value (water foxtail [29]) was 5 (mortality of 90% or above (nearly complete death)) and the “F: wild oat, herbicidal effect” value (wild oat [30]) was 0 (mortality of less than 5% (almost ineffective)).
`CCN1COCN(Cc2ccccc2NS(=O)(=O)C(F)(F)F)C1=O` [IV-5] was tested, and the “A: barnyardgrass, herbicidal effect (evaluation scale 0-5)” value (barnyardgrass [1]) was 5 (mortality of 90% or above (nearly complete death)), the “B: bulrush, herbicidal effect” value (bulrush [2]) was 5 (mortality of 90% or above (nearly complete death)) and the “C: ducksalad, herbicidal effect” value (ducksalad [3]) was 4 (mortality of at least 70% and less than 90%). The “a: transplanted rice, effect on crop (evaluation scale 0-5)” value (transplanted rice) was 0 (mortality of less than 5% (almost ineffective)), the “A: barnyardgrass, herbicidal effect (evaluation scale 0-5)” value (barnyardgrass [4]) was 5 (mortality of 90% or above (nearly complete death)) and the “B: bulrush, herbicidal effect” value (bulrush [5]) was 5 (mortality of 90% or above (nearly complete death)). The “C: ducksalad, herbicidal effect” value (ducksalad [6]) was 5 (mortality of 90% or above (nearly complete death)), the “herbicidal effect, H: Italian ryegrass” value (Italian ryegrass [7]) was 4 (mortality of at least 70% and less than 90%) and the “herbicidal effect, A: barnyardgrass” value (barnyardgrass [8]) was 5 (mortality of 90% or above (nearly complete death)). The “herbicidal effect, N: common chickweed” value (common chickweed [9]) was 5 (mortality of 90% or above (nearly complete death)), the “herbicidal effect, L: common lambsquater” value (common lambsquater [10]) was 3 (mortality of at least 40% and less than 70%) and the “herbicidal effect, J: common ragweed” value (common ragweed [11]) was 0 (mortality of less than 5% (almost ineffective)). The “herbicidal effect, E: giant foxtail” value (giant foxtail [12]) was 5 (mortality of 90% or above (nearly complete death)), the “herbicidal effect, D: large crabgrass” value (large crabgrass [13]) was 5 (mortality of 90% or above (nearly complete death)) and the “herbicidal effect, M: posumbu knotweed” value (posumbu knotweed [14]) was 4 (mortality of at least 70% and less than 90%). The “herbicidal effect, K: redroot pigweed” value (redroot pigweed [15]) was 3 (mortality of at least 40% and less than 70%), the “herbicidal effect, I: velvetleaf” value (velvetleaf [16]) was 5 (mortality of 90% or above (nearly complete death)) and the “herbicidal effect, G: water foxtail” value (water foxtail [17]) was 5 (mortality of 90% or above (nearly complete death)). For the same compound, the “herbicidal effect, F: wild oat” value (wild oat [18]) was 2 (mortality of at least 20% and less than 40%), the “H: Italian ryegrass, herbicidal effect” value (Italian ryegrass [19]) was 3 (mortality of at least 40% and less than 70%) and the “A: barnyardgrass, herbicidal effect” value (barnyardgrass [20]) was 5 (mortality of 90% or above (nearly complete death)). For the same compound, the “O: beadstraw, herbicidal effect” value (beadstraw) was 3 (mortality of at least 40% and less than 70%), the “N: common chickweed, herbicidal effect” value (common chickweed [21]) was 4 (mortality of at least 70% and less than 90%) and the “L: common lambsquater, herbicidal effect” value (common lambsquater [22]) was 3 (mortality of at least 40% and less than 70%). For the same compound, the “J: common ragweed, herbicidal effect” value (common ragweed [23]) was 3 (mortality of at least 40% and less than 70%), the “E: giant foxtail, herbicidal effect” value (giant foxtail [24]) was 4 (mortality of at least 70% and less than 90%) and the “D: large crabgrass, herbicidal effect” value (large crabgrass [25]) was 4 (mortality of at least 70% and less than 90%). For the same compound, the “M: posumbu knotweed, herbicidal effect” value (posumbu knotweed [26]) was 0 (mortality of less than 5% (almost ineffective)), the “K: redroot pigweed, herbicidal effect” value (redroot pigweed [27]) was 0 (mortality of less than 5% (almost ineffective)) and the “I: velvetleaf, herbicidal effect” value (velvetleaf [28]) was 5 (mortality of 90% or above (nearly complete death)). For the same compound, the “G: water foxtail, herbicidal effect” value (water foxtail [29]) was 5 (mortality of 90% or above (nearly complete death)) and the “F: wild oat, herbicidal effect” value (wild oat [30]) was 0 (mortality of less than 5% (almost ineffective)).
